Experiment [1] deals with non-small cell lung cancer with ROS fusion gene positive. As to conditions: clinical application, Non-Patent Document 22; cited from earlier work.
The next experiment addresses T1, ROS tyrosine kinase (Homo sapiens, UniProt P08922).
T1 construct: purchased Carna Biosciences, Inc
Kind of experiment: ROS tyrosine kinase inhibitory activity test (ELISA). Format: biochemical, humans. As to conditions: 25 μM ATP substrate solution, 30° C., one hour. In outline: (§1)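 Human recombinant ROS or JAK2 kinase (added as a 0.25 nM solution) reacted for 1 h at 30 °C in 15 mM Tris-Cl pH 7.5, 0.01% Tween-20, 1 mM DTT with compound from DMSO. Substrate phosphotyrosine was detected by HRP anti-phosphotyrosine antibody and TMB at A450, and IC50 came from non-linear regression.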
A general note: An ELISA detects its analyte on a solid surface through an enzyme-linked reagent.

A further experiment has as its target T2, JAK2 tyrosine kinase (Homo sapiens, UniProt O60674).
T2 construct: purchased Carna Biosciences, Inc
Kind of experiment: JAK2 tyrosine kinase inhibitory activity test (ELISA). Format: biochemical, humans. As to conditions: 25 μM ATP substrate solution, 30° C., one hour. In outline:
as §1

The target of the next experiment is T3, FIG-ROS/BaF3 cell (Homo sapiens, UniProt P08922).
T3 construct: fused on or other part: Q9HD26 (Golgi-associated PDZ and coiled-coil motif-containing protein)
Briefly: Proliferation inhibitory activity test against FIG-ROS/BaF3 cell. The class given is cell-based. As to conditions: 3 days incubation, cell counting kit; read-out: Proliferation inhibitory activity against FIG-ROS/BaF3 cell (IC50). On the procedure:
A BaF3 cell which had been transformed by introducing the FIG-ROS fusion gene (derived from U118MG human glioma cell) (FIG-ROS/BaF3 Cell) was prepared on a culture medium, seeded on a 96-well plate in the number of 1×10^3/100 μL per well, and then allowed to stand in a CO2 incubator (at 37° C. and 5% CO2). As the culture medium, 10% FBS (fetal bovine serum)-incorporated RPMI-1640 was used.
2. Proliferation Inhibitory Activity Test:
A test substance was dissolved in dimethyl sulfoxide (DMSO) to 10 mM and further diluted with DMSO to 100-fold to prepare a 100 μM solution. This was diluted with a 1% DMSO-incorporated medium to concentrations of 10-fold of the concentration to be measured (10,000, 1,000, 100, 10, and 1 nM). Each of the medicine solutions was added at 11 μL per well and mixed. To a control having no medicine added thereto, a 1% DMSO-incorporated medium was added, and incubated in a CO2 incubator (at 37° C. and 5% CO2) for 3 days. After completion of the incubation, the number of live cells was counted using a cell counting kit. First of all, each cell counting kit solution was added at 5 μL per well and mixed, and incubated in a CO2 incubator (at 37° C. and 5% CO2) for 4 hours. An absorbance at 450 nm was measured with a microplate reader (Model 3550, manufactured by BIO-RAD, Benchmark, manufactured by BIO-RAD, or iMARK, manufactured by BIO-RAD) with a reference wavelength of 650 nm.
3. Analysis of Measurement Results:
A non-linear regression analysis was performed for the measured absorbance with an SAS system (SAS Institute Inc.), and a concentration of each of the test substances of inhibiting the cell proliferation at 50% (IC50) was calculated. The proliferation inhibitory activity (IC50, nM) of each of the test substances against the FIG-ROS/BaF3 cell is shown in Table 9.
A general note: Tetrazolium assays rely on reduction of a dye to a coloured formazan, in cell work by metabolically active cells.

These results are taken from patent US9580413B2, “Substituted pyrrolidines as ROS tyrosine kinase inhibitors” (NIPPON SHINYAKU CO., LTD., priority 2012, dated 2017).

Counter-ions that a name gives are not always drawn.

T2 sequence (O60674 whole entry): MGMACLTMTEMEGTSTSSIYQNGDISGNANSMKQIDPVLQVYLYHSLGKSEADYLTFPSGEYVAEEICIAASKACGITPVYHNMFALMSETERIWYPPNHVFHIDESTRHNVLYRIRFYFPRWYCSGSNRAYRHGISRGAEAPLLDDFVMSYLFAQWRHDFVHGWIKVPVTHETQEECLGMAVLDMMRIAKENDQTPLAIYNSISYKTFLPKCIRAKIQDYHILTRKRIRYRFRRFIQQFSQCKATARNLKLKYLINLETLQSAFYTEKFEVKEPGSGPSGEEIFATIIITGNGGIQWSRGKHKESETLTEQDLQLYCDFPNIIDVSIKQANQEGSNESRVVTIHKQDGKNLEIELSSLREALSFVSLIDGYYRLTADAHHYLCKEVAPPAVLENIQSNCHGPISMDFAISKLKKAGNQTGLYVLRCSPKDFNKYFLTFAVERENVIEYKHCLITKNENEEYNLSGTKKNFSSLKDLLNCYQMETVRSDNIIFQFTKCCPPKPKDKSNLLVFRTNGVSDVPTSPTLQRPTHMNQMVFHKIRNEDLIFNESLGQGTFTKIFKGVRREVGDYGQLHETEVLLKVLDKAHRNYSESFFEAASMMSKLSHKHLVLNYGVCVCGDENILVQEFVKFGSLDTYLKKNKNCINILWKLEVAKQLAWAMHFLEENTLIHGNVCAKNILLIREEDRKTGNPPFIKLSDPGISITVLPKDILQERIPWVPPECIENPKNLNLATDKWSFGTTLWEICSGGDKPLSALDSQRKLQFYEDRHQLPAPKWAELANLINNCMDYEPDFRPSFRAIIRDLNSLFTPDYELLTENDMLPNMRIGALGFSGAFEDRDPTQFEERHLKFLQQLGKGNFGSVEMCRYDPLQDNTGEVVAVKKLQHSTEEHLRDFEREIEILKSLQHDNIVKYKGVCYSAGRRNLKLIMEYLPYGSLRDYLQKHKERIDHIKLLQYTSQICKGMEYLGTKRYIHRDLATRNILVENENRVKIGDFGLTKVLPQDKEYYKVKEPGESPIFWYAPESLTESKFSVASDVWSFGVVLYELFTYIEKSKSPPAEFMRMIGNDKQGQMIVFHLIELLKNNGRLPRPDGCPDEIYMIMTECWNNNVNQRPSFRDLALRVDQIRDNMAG
T3 sequence (P08922 whole entry, change not shown, the tested form may be a part): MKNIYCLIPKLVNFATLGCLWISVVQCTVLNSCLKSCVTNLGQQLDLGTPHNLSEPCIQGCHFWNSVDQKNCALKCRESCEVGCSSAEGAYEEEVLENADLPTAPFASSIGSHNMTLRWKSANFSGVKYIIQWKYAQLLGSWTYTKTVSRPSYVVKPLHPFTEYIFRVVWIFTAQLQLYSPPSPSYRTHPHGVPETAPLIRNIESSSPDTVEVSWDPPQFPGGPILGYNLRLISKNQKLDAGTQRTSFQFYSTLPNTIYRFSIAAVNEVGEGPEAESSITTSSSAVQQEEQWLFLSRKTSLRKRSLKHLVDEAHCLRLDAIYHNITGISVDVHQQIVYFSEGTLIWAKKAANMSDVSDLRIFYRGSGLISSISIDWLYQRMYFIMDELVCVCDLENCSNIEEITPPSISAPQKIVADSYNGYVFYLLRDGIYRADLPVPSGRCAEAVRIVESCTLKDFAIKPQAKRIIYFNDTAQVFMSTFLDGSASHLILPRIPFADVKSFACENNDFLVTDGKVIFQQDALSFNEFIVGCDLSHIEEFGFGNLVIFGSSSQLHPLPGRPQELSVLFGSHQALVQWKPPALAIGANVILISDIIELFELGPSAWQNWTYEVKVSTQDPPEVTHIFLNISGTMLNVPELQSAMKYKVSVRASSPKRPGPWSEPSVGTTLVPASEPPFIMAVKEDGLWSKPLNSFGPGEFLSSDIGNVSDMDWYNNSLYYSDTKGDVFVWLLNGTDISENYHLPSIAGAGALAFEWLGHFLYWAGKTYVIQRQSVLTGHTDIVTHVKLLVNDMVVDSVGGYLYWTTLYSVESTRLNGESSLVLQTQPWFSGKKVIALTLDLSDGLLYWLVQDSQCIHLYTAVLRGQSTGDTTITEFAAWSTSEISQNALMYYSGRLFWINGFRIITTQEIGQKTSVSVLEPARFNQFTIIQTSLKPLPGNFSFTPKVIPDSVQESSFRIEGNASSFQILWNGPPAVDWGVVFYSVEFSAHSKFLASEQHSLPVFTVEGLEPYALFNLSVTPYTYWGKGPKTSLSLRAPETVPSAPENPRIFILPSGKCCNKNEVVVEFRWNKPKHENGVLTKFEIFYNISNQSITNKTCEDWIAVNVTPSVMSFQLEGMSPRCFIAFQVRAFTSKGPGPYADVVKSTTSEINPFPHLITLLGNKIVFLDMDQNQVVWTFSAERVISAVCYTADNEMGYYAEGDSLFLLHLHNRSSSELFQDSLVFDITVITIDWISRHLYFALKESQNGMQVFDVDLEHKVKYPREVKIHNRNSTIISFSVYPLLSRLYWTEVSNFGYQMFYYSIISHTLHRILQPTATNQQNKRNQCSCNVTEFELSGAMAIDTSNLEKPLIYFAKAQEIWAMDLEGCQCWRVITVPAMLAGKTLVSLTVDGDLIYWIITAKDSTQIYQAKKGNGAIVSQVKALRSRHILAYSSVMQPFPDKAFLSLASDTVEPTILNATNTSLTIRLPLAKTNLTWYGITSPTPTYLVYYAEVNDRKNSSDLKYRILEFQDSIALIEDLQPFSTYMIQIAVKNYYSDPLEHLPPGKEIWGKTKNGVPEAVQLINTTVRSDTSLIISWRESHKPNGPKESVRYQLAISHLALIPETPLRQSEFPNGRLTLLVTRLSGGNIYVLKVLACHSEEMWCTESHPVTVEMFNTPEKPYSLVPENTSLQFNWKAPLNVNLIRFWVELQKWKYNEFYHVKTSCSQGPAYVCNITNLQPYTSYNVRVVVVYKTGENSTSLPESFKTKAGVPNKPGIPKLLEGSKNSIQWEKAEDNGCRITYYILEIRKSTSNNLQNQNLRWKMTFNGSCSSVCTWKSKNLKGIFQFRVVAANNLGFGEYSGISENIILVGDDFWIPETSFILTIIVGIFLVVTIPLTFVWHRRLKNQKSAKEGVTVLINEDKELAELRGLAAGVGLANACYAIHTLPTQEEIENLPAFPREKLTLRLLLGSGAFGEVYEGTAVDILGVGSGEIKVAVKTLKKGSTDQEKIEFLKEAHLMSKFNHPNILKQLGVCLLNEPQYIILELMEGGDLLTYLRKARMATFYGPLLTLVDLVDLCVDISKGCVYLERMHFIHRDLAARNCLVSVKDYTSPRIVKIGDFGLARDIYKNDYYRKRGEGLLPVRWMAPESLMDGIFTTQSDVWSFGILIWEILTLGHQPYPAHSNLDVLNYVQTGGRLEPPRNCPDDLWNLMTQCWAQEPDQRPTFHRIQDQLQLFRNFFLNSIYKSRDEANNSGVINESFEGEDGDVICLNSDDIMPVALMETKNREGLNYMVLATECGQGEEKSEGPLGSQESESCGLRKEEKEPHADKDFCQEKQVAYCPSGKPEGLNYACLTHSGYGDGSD

As for `C[C@@H](Oc1cc(-c2cnn(C3CCNCC3)c2)cnc1N)c1c(Cl)ccc(F)c1Cl` [crizotinib], in experiment [1], the “effectiveness for patients of non-small cell lung cancer with ROS fusion gene positive” value is given as “effective”.

One may read the IC50 as the concentration that inhibits the measured activity by half. Low readings indicate inhibition by little substance, high ones a need for much substance. As to `Cc1ccc([C@@H]2CCCN2c2cncc(Nc3ncc(C#N)s3)n2)cc1` [Example 1, 2-({6-[(2S)-2-(4-Methylphenyl)pyrrolidin-1-yl]pyrazin-2-yl}amino)-1,3-thiazole-5-carbonitrile hydrochloride], the concentration for half-maximal inhibition (IC50) at ROS tyrosine kinase is 1.6 nM; against JAK2 tyrosine kinase it was 76 nM. Also, the GI50 at FIG-ROS/BaF3 cell is 2.2 nM.

Regarding `COc1c(Nc2ncc(C#N)s2)nc(N2CCC[C@H]2c2ccc(C)cc2)nc1C(=O)N[C@H]1CC[C@H](O)CC1` [Example 62, 6-[(5-Cyano-1,3-thiazol-2-yl)amino]-N-(trans-4-hydroxycyclohexyl)-5-methoxy-2-[(2S)-2-(4-methylphenyl)pyrrolidin-1-yl]pyrimidine-4-carboxamide], the results for the 50% inhibitory concentration (IC50) at ROS tyrosine kinase and at JAK2 tyrosine kinase were 2.1 nM and greater than 1000 nM, respectively. Further, the GI50 at FIG-ROS/BaF3 cell turned out to be 2.6 nM.

For `COc1c(Nc2ncc(C#N)s2)nc(N2CCC[C@H]2c2ccc(C)cc2)nc1-c1cnc(C)nc1` [Example 60, 2-({5-Methoxy-2′-methyl-2-[(2S)-2-(4-methylphenyl)pyrrolidin-1-yl]-4,5′-bipyrimidin-6-yl}amino)-1,3-thiazole-5-carbonitrile], the half-inhibitory concentration (IC50) was determined as 2.3 nM at ROS tyrosine kinase and 740 nM against JAK2 tyrosine kinase. Moreover, the GI50 on FIG-ROS/BaF3 cell amounted to 2.9 nM.

As for `N#Cc1cnc(Nc2cncc(N3CCCC3c3ccc(Cl)cc3)n2)s1` (stereo not shown) [Example 48, 2-({6-[2-(4-Chlorophenyl)pyrrolidin-1-yl]pyrazin-2-yl}amino)-1,3-thiazole-5-carbonitrile], the IC50 at ROS tyrosine kinase came to 0.6 nM; at JAK2 tyrosine kinase, 31 nM. Further, the GI50 at FIG-ROS/BaF3 cell stood at 1.9 nM.

Take `Cc1ccc(C2CCCN2c2cc(C(F)(F)F)cc(Nc3ncc(C#N)s3)n2)cc1` (stereo not shown) [Example 27, 2-({6-[2-(4-Methylphenyl)pyrrolidin-1-yl]-4-(trifluoromethyl)pyridin-2-yl}amino)-1,3-thiazole-5-carbonitrile]: the half-inhibitory concentration (IC50) against ROS tyrosine kinase is 65 nM; against JAK2 tyrosine kinase, greater than 1000 nM. Further, the GI50 at FIG-ROS/BaF3 cell was 27 nM.

As to `COc1c(Nc2ncns2)nc(N2CCC[C@H]2c2ccc(C)cc2)nc1-c1cnn(CCO)c1` [Example 61, 2-(4-{5-Methoxy-2-[(2S)-2-(4-methylphenyl)pyrrolidin-1-yl]-6-(1,2,4-thiadiazol-5-ylamino)pyrimidin-4-yl}-1H-pyrazol-1-yl)ethanol], the IC50 was 2.5 nM against ROS tyrosine kinase and 490 nM on JAK2 tyrosine kinase. At FIG-ROS/BaF3 cell, the GI50 was 1 nM.

For `Cc1ccc(C2CCCN2c2nc(Nc3ncc(C#N)s3)c(C)nc2C)cc1` (stereo not shown) [Example 43, 2-({3,5-Dimethyl-6-[2-(4-methylphenyl)pyrrolidin-1-yl]pyrazin-2-yl}amino)-1,3-thiazole-5-carbonitrile], the IC50 is 4.2 nM at ROS tyrosine kinase and greater than 1000 nM at JAK2 tyrosine kinase. Moreover, the GI50 on FIG-ROS/BaF3 cell came to 2.1 nM.

With `Cc1ccc([C@@H]2CCCN2c2cc(C(=O)N[C@H]3CC[C@H](O)CC3)c(C)c(Nc3ncc(C#N)s3)n2)cc1` [Example 68, 2-[(5-Cyano-1,3-thiazol-2-yl)amino]-N-(4-hydroxycyclohexyl)-3-methyl-6-[(2S)-2-(4-methylphenyl)pyrrolidin-1-yl]pyridine-4-carboxamide], the IC50 on ROS tyrosine kinase stood at 0.76 nM; at JAK2 tyrosine kinase, 22 nM. On FIG-ROS/BaF3 cell, the GI50 is 0.71 nM.

Consider `COc1c(Nc2ncc(C#N)s2)nc(N2CCCC2c2ccc(C)cc2)nc1-c1ccc(F)nc1` (stereo not shown) [Example 50, 2-({6-(6-Fluoropyridin-3-yl)-5-methoxy-2-[2-(4-methylphenyl)pyrrolidin-1-yl]pyrimidin-4-yl}amino)-1,3-thiazole-5-carbonitrile], for which the IC50 against ROS tyrosine kinase was 12 nM; on JAK2 tyrosine kinase, no less than 1000 nM. The GI50 on FIG-ROS/BaF3 cell was determined as 9.4 nM.

On to `Cc1ccc(C2CCCN2c2nc(Nc3ncc(C#N)s3)cc(C(=O)O)n2)cc1` (stereo not shown) [Example 7, 6-[(5-Cyano-1,3-thiazol-2-yl)amino]-2-[2-(4-methylphenyl)pyrrolidin-1-yl]pyrimidine-4-carboxylic acid], for which the figures for the half-inhibitory concentration (IC50) on ROS tyrosine kinase and on JAK2 tyrosine kinase were 0.6 nM and 37 nM, respectively. For the same molecule, at FIG-ROS/BaF3 cell, the GI50 was 83 nM.

As to `CCc1c(COC)nc(N2CCC[C@H]2c2ccc(C)cc2)nc1Nc1ncc(C#N)s1` [Example 57, 2-({5-Ethyl-6-(methoxymethyl)-2-[(2S)-2-(4-methylphenyl)pyrrolidin-1-yl]pyrimidin-4-yl}amino)-1,3-thiazole-5-carbo nitrile], the values for the IC50 at ROS tyrosine kinase and on JAK2 tyrosine kinase were 2.7 nM and greater than 1000 nM, respectively. Moreover, on FIG-ROS/BaF3 cell, the GI50 turned out to be 1.8 nM.

Take `COC(=O)c1cc(Nc2ncc(C#N)s2)nc(N2CCCC2c2ccc(C)cc2)n1` (stereo not shown) [Example 6, Methyl 6-[(5-cyano-1,3-thiazol-2-yl)amino]-2-[2-(4-methylphenyl)pyrrolidin-1-yl]pyrimidine-4-carboxylate]: the half-inhibitory concentration (IC50) at ROS tyrosine kinase was found to be 7.1 nM; at JAK2 tyrosine kinase it was 92 nM. Further, the GI50 on FIG-ROS/BaF3 cell is 23 nM.
